Experimental data published in PubChem BioAssay (NCI).
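Protocol summary: plate cells (96-well), add compound at 5 concentrations, incubate 48 h, interpolate endpoints linearly. Definition used: TGI = concentration required for complete inhibition of growth.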

Key:
Assay in all cases: inhibition of tumour cell growth, NCI panel, 48 h
LOX IMVI melanoma = tested on: LOX IMVI melanoma
UO-31 renal = tested on: UO-31 renal
SNB-75 CNS = tested on: SNB-75 CNS
HL-60(TB) leukemia = tested on: HL-60(TB) leukemia
KM12 colon = tested on: KM12 colon
SK-MEL-5 melanoma = tested on: SK-MEL-5 melanoma
NCI-H460 lung = tested on: NCI-H460 lung
HCT-116 colon = tested on: HCT-116 colon
HT29 colon = tested on: HT29 colon
UACC-62 melanoma = tested on: UACC-62 melanoma
EKVX NSCLC = tested on: EKVX NSCLC
HOP-62 NSCLC = tested on: HOP-62 NSCLC
NCI-H23 lung = tested on: NCI-H23 lung
UACC-257 melanoma = tested on: UACC-257 melanoma
U251 CNS = tested on: U251 CNS
MCF7 breast = tested on: MCF7 breast
MDA-MB-231 breast = tested on: MDA-MB-231 breast
OVCAR-8 ovarian = tested on: OVCAR-8 ovarian
COLO 205 colon = tested on: COLO 205 colon
BT-549 breast = tested on: BT-549 breast
SK-MEL-2 melanoma = tested on: SK-MEL-2 melanoma
RXF 393 renal = tested on: RXF 393 renal
SN12C renal = tested on: SN12C renal
SNB-19 CNS = tested on: SNB-19 CNS
M14 melanoma = tested on: M14 melanoma
CAKI-1 renal = tested on: CAKI-1 renal
NCI/ADR-RES ovarian = tested on: NCI/ADR-RES ovarian
MDA-N = tested on: MDA-N
NCI-H226 lung = tested on: NCI-H226 lung
SR leukemia = tested on: SR leukemia
PC-3 prostate = tested on: PC-3 prostate
SW-620 colon = tested on: SW-620 colon
A549 NSCLC = tested on: A549 NSCLC
OVCAR-4 ovarian = tested on: OVCAR-4 ovarian
ACHN renal = tested on: ACHN renal
OVCAR-3 ovarian = tested on: OVCAR-3 ovarian
SF-295 CNS = tested on: SF-295 CNS
SF-539 CNS = tested on: SF-539 CNS
786-0 renal = tested on: 786-0 renal
SK-MEL-28 melanoma = tested on: SK-MEL-28 melanoma
HOP-92 NSCLC = tested on: HOP-92 NSCLC
HCC-2998 colon = tested on: HCC-2998 colon
K-562 leukemia = tested on: K-562 leukemia
TK-10 renal = tested on: TK-10 renal
MOLT-4 leukemia = tested on: MOLT-4 leukemia
HS 578T breast = tested on: HS 578T breast
MDA-MB-435 = tested on: MDA-MB-435
SK-OV-3 ovarian = tested on: SK-OV-3 ovarian
A498 renal = tested on: A498 renal
HCT-15 colon = tested on: HCT-15 colon
CCRF-CEM leukemia = tested on: CCRF-CEM leukemia
MALME-3M melanoma = tested on: MALME-3M melanoma
OVCAR-5 ovarian = tested on: OVCAR-5 ovarian
IGROV1 ovarian = tested on: IGROV1 ovarian

CN(C)c1ccc(/C=N/N=C2\C(=O)Nc3c(Cl)cc(Cl)cc32)cc1
TGI (LOX IMVI melanoma): > 100 µM
TGI (UO-31 renal): > 100 µM
TGI (SNB-75 CNS): 56.9 µM
TGI (HL-60(TB) leukemia): > 100 µM
TGI (KM12 colon): 36.4 µM
TGI (SK-MEL-5 melanoma): > 100 µM
TGI (NCI-H460 lung): > 100 µM
TGI (HCT-116 colon): > 100 µM
TGI (HT29 colon): > 100 µM
TGI (UACC-62 melanoma): > 100 µM
TGI (EKVX NSCLC): > 100 µM
TGI (HOP-62 NSCLC): > 100 µM
TGI (NCI-H23 lung): > 100 µM
TGI (UACC-257 melanoma): > 100 µM
TGI (U251 CNS): > 100 µM
TGI (MCF7 breast): > 100 µM
TGI (MDA-MB-231 breast): > 100 µM
TGI (OVCAR-8 ovarian): > 100 µM
TGI (COLO 205 colon): > 100 µM
TGI (BT-549 breast): > 100 µM
TGI (SK-MEL-2 melanoma): > 100 µM
TGI (RXF 393 renal): > 100 µM
TGI (SN12C renal): > 100 µM
TGI (SNB-19 CNS): > 100 µM
TGI (M14 melanoma): > 100 µM
TGI (CAKI-1 renal): > 100 µM
TGI (NCI/ADR-RES ovarian): 89 µM
TGI (MDA-N): 33.8 µM
TGI (NCI-H226 lung): > 100 µM
TGI (SR leukemia): 33 µM
TGI (PC-3 prostate): > 100 µM
TGI (SW-620 colon): > 100 µM
TGI (A549 NSCLC): > 100 µM
TGI (OVCAR-4 ovarian): > 100 µM
TGI (ACHN renal): > 100 µM
TGI (OVCAR-3 ovarian): > 100 µM
TGI (SF-295 CNS): > 100 µM
TGI (SF-539 CNS): > 100 µM
TGI (786-0 renal): > 100 µM
TGI (SK-MEL-28 melanoma): > 100 µM
TGI (HOP-92 NSCLC): > 100 µM
TGI (HCC-2998 colon): > 100 µM
TGI (K-562 leukemia): > 100 µM
TGI (TK-10 renal): > 100 µM
TGI (MOLT-4 leukemia): > 100 µM
TGI (HS 578T breast): > 100 µM
TGI (MDA-MB-435): > 100 µM
TGI (SK-OV-3 ovarian): > 100 µM
TGI (A498 renal): > 100 µM
TGI (HCT-15 colon): > 100 µM
TGI (CCRF-CEM leukemia): > 100 µM
TGI (MALME-3M melanoma): > 100 µM
TGI (OVCAR-5 ovarian): > 100 µM
TGI (IGROV1 ovarian): > 100 µM

Nc1ccc2c(c1)Cc1ccccc1-2
TGI (LOX IMVI melanoma): > 100 µM
TGI (UO-31 renal): > 100 µM
TGI (SNB-75 CNS): 94.3 µM
TGI (HL-60(TB) leukemia): > 100 µM
TGI (KM12 colon): > 100 µM
TGI (SK-MEL-5 melanoma): > 100 µM
TGI (NCI-H460 lung): > 100 µM
TGI (HCT-116 colon): > 100 µM
TGI (HT29 colon): > 100 µM
TGI (UACC-62 melanoma): > 100 µM
TGI (EKVX NSCLC): > 100 µM
TGI (HOP-62 NSCLC): > 100 µM
TGI (NCI-H23 lung): > 100 µM
TGI (UACC-257 melanoma): > 100 µM
TGI (U251 CNS): > 100 µM
TGI (MCF7 breast): > 100 µM
TGI (MDA-MB-231 breast): > 100 µM
TGI (OVCAR-8 ovarian): > 100 µM
TGI (COLO 205 colon): > 100 µM
TGI (BT-549 breast): > 100 µM
TGI (SK-MEL-2 melanoma): > 100 µM
TGI (RXF 393 renal): > 100 µM
TGI (SN12C renal): > 100 µM
TGI (SNB-19 CNS): > 100 µM
TGI (M14 melanoma): > 100 µM
TGI (CAKI-1 renal): > 100 µM
TGI (NCI/ADR-RES ovarian): > 100 µM
TGI (MDA-N): > 100 µM
TGI (NCI-H226 lung): > 100 µM
TGI (SR leukemia): > 100 µM
TGI (PC-3 prostate): > 100 µM
TGI (SW-620 colon): > 100 µM
TGI (A549 NSCLC): > 100 µM
TGI (OVCAR-4 ovarian): > 100 µM
TGI (ACHN renal): > 100 µM
TGI (OVCAR-3 ovarian): > 100 µM
TGI (SF-295 CNS): > 100 µM
TGI (SF-539 CNS): > 100 µM
TGI (786-0 renal): > 100 µM
TGI (SK-MEL-28 melanoma): > 100 µM
TGI (HOP-92 NSCLC): > 100 µM
TGI (HCC-2998 colon): > 100 µM
TGI (K-562 leukemia): > 100 µM
TGI (TK-10 renal): > 100 µM
TGI (MOLT-4 leukemia): > 100 µM
TGI (HS 578T breast): > 100 µM
TGI (MDA-MB-435): > 100 µM
TGI (SK-OV-3 ovarian): > 100 µM
TGI (A498 renal): > 100 µM
TGI (HCT-15 colon): > 100 µM
TGI (CCRF-CEM leukemia): > 100 µM
TGI (MALME-3M melanoma): > 100 µM
TGI (OVCAR-5 ovarian): > 100 µM
TGI (IGROV1 ovarian): > 100 µM
